pIC50: −log10 of the molar value.
Target: ATM (Homo sapiens (Human), UniProt Q13315)
Test: Caliper mobility shift assay for ATM
Type: biochemical
Conditions: read-out: IC50 of inhibitory activity on ATM kinase
Description: 1.2 Determination of the Inhibitory Activities of Compounds on ATM: Caliper Mobility Shift Assay for ATM
To a 96-well plate, 98 μL of DMSO and 2 μL of the 10 mM stock solution were added and mixed evenly so that the concentration of the solution was 200 μM.
Based on the inhibitory rates of the compound at different concentrations, IC50 was calculated according to the formula: Y=Bottom+(Top−Bottom)/(1+(IC50/X)^HillSlope).

Sequence of ATM (Q13315 whole entry): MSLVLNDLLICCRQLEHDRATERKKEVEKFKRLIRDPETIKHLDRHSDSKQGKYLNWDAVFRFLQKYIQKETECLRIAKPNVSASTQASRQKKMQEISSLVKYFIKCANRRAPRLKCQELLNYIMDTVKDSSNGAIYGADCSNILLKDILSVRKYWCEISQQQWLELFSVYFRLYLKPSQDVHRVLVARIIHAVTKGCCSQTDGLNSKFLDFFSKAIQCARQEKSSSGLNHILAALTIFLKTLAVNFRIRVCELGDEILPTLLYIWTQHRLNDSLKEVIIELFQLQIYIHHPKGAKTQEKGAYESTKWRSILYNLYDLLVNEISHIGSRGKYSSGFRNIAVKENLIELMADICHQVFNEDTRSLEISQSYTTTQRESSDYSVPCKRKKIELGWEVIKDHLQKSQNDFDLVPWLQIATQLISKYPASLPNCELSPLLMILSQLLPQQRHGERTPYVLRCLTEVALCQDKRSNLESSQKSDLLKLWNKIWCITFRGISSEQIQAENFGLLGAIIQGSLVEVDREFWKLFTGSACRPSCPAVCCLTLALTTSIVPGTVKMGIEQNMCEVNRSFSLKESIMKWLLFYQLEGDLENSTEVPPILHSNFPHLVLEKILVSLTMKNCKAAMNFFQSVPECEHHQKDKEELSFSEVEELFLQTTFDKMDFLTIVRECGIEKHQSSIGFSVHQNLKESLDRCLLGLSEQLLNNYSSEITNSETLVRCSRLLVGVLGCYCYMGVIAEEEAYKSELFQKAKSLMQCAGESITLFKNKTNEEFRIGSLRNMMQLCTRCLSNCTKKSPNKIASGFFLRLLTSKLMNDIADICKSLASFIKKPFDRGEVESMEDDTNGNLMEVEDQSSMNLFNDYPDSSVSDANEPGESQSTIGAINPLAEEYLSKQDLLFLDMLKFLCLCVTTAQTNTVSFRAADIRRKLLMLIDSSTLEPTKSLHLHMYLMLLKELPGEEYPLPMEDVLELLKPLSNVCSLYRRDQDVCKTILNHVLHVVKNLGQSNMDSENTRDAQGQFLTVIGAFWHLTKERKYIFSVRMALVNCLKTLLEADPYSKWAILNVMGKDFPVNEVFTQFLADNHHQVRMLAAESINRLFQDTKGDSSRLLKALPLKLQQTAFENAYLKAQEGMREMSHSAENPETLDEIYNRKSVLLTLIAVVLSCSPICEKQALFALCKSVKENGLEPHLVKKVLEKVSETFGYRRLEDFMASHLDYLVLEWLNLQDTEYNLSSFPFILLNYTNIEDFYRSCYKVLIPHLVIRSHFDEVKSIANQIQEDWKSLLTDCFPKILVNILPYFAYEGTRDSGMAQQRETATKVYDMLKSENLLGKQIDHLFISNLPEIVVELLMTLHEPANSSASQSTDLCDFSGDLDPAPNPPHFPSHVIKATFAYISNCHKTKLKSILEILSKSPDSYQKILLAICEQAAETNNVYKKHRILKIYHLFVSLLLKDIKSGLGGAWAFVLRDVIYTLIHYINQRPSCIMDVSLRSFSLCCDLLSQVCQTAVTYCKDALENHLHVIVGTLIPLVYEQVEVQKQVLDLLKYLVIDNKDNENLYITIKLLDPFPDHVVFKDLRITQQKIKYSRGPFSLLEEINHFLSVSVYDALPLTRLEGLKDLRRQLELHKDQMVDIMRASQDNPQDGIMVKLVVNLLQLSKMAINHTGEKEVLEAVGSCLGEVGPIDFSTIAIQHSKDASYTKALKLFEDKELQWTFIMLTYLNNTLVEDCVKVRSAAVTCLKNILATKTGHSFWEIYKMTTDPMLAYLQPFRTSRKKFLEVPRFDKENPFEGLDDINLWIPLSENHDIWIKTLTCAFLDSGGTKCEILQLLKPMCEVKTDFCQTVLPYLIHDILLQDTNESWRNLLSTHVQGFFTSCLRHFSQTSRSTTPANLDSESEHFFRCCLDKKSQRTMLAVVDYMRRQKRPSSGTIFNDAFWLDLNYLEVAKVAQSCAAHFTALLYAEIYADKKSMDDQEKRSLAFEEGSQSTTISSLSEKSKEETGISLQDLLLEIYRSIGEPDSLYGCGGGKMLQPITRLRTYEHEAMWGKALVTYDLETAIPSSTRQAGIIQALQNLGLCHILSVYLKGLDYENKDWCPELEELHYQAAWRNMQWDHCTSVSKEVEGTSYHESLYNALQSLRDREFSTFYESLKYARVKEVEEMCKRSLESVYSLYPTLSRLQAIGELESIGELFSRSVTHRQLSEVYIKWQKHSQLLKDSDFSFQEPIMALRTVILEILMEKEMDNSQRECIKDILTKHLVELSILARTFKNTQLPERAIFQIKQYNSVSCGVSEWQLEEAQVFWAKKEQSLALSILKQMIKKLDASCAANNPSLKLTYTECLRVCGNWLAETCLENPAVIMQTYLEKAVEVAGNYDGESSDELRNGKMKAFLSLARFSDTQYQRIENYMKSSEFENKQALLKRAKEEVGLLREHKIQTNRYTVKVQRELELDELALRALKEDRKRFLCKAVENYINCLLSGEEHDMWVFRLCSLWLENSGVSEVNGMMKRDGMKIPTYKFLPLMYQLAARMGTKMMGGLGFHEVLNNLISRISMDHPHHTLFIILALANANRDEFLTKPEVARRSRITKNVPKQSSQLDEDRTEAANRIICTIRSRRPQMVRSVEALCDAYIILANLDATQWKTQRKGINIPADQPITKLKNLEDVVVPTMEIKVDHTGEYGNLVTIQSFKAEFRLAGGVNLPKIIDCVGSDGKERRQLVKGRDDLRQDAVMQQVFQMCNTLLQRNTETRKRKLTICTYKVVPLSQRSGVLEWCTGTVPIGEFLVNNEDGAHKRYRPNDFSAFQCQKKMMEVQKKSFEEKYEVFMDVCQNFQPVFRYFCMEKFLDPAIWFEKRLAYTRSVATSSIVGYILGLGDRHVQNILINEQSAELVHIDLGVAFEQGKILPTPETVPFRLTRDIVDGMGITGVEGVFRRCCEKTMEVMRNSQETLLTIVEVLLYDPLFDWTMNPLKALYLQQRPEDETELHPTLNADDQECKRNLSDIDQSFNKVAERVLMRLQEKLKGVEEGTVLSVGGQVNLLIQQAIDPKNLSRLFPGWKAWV

Structure (SMILES)	pIC50
Cn1c(=O)n2c3c4c(c(-c5ccc(OCCCN6CCCCC6)nc5)c(F)cc4ncc31)OCCC2 [Compound A-154]	9.15
C[C@H]1COc2c(-c3ccc(OCCCN4CCCCC4)nc3)c(F)cc3ncc4c(c23)n1c(=O)n4C [Example A-1, (S)-6-fluoro-2,10-dimethyl-7-(6-(3-(piperidin-1-yl)propoxy)pyridin-3-yl)-9,10-dihydro-8-oxa-2,4,10a-triazanaphtho[2,1,8-cde]azulen-1(2H)-one]	9.10
C[C@@H]1COc2c(-c3ccc(OCCCN4CCCCC4)nc3)c(F)cc3ncc4c(c23)n1c(=O)n4C [Example A-4, (R)-6-fluoro-2,10-dimethyl-7-(6-(3-(piperidin-1-yl)propoxy)pyridin-3-yl)-9,10-dihydro-8-oxa-2,4,10a-triazanaphtho[2,1,8-cde]azulen-1(2H)-one]	9.05
Cn1c(=O)n2c3c4c(c(-c5ccc(OCCCN6CCCCC6)nc5)c(F)cc4ncc31)OCC21CC1 [Example A-11, 6-fluoro-2-methyl-7-(6-(3-(piperidin-1-yl)propoxy)pyridin-3-yl)-2,9-dihydro-1H-spiro[8-oxa-2,4,10a-triazanaphtho[2,1,8-cde]azulene-10,1-cyclopropan]-1-one]	9.27
Cn1c(=O)n2c3c4c(c(-c5ccc(OCCCN6CCCCC6)nc5)c(F)cc4ncc31)OC[C@@H]2Cc1ccccc1 [Example A-13, (S)-10-benzyl-6-fluoro-2-methyl-7-(6-(3-(piperidin-1-yl)propoxy)pyridin-3-yl)-9,10-dihydro-8-oxa-2,4,10a-triazanaphtho[2,1,8-cde]azulen-1(2H)-one]	9.40
Cn1c(=O)n2c3c4c(c(-c5ccc(OCCCN6CCCCC6)nc5)c(F)cc4ncc31)OC[C@H]2Cc1ccccc1 [Example A-14, (R)-10-benzyl-6-fluoro-2-methyl-7-(6-(3-(piperidin-1-yl)propoxy)pyridin-3-yl)-9,10-dihydro-8-oxa-2,4,10a-triazanaphtho[2,1,8-cde]azulen-1(2H)-one]	9.38
CC[C@H]1COc2c(-c3ccc(OCCCN4CCCCC4)nc3)c(F)cc3ncc4c(c23)n1c(=O)n4C [Example A-23, (S)-10-ethyl-6-fluoro-2-methyl-7-(6-(3-(piperidin-1-yl)propoxy)pyridin-3-yl)-9,10-dihydro-8-oxa-2,4,10a-triazanaphtho[2,1,8-cde]azulen-1(2H)-one]	9.38
COc1cc2ncc3c4c2c(c1-c1cnn(C)c1)OCC(c1ccccn1)n4c(=O)n3C (stereo not shown) [Example A-30, 6-methoxy-2-methyl-7-(1-methyl-1H-pyrazol-4-yl)-10-(pyridin-2-yl)-9,10-dihydro-8-oxa-2,4,10a-triazanaphtho[2,1,8-cde]azulen-1(2H)-one]	9.57
COc1cc2ncc3c4c2c(c1-c1ccc(OCCCN2CCCCC2)nc1)OC[C@@H](C)n4c(=O)n3C [Example A-32, (R)-6-methoxy-2,10-dimethyl-7-(6-(3-(piperidin-1-yl)propoxy)pyridin-3-yl)-9,10-dihydro-8-oxa-2,4,10a-triazanaphtho[2,1,8-cde]azulen-1(2H)-one]	9.03
Cn1c(=O)n2c3c4c(c(-c5ccc(OCCCN6CCCCC6)nc5)ccc4ncc31)OCC2(C)C [Example A-67, 2,10,10-trimethyl-7-(6-(3-(piperidin-1-yl)propoxy)pyridin-3-yl)-9,10-dihydro-8-oxa-2,4,10a-triazanaphtho[2,1,8-cde]azulen-1(2H)-one]	9.59
C[C@H]1COc2c(-c3ccc(N4CCC(N(C)C)CC4)nc3)c(F)cc3ncc4c(c23)n1c(=O)n4C [Example A-159, (S)-7-(6-(4-(dimethylamino)piperidin-1-yl)pyridin-3-yl)-6-fluoro-2,10-dimethyl-9,10-dihydro-8-oxa-2,4,10a-triazanaphtho[2,1,8-cde]azulen-1(2H)-one]	9.04
Cn1c(=O)n2c3c4c(c(-c5ccc(OCCCN6CC[C@H](C#N)C6)nc5)c(F)cc4ncc31)OCC21CCC1 [Example A-160]	9.37
C[C@H]1COc2c(-c3ccc(OCCCN(C)C)nc3)ccc3ncc4c(c23)n1c(=O)n4C [Example A-178, (S)-7-(6-(3-(dimethylamino)propoxy)pyridin-3-yl)-2,10-dimethyl-9,10-dihydro-8-oxa-2,4,10a-triazanaphtho[2,1,8-cde]azulen-1(2H)-one]	9.60
CN(C)CCCOc1ccc(-c2ccc3ncc4c5c3c2OCC(C)(C)n5c(=O)n4C)cn1 [Example A-180, 7-(6-(3-(dimethylamino)propoxy)pyridin-3-yl)-2,10,10-trimethyl-9,10-dihydro-8-oxa-2,4,10a-triazanaphtho[2,1,8-cde]azulen-1(2H)-one]	9.59
C[C@@H]1COc2c(-c3ccc(OCCCN(C)C)nc3)ccc3ncc4c(c23)n1c(=O)n4C [Example A-181, (R)-7-(6-(3-(dimethylamino)propoxy)pyridin-3-yl)-2,10-dimethyl-9,10-dihydro-8-oxa-2,4,10a-triazanaphtho[2,1,8-cde]azulen-1(2H)-one]	9.14
CN(C)CCCOc1ccc(-c2ccc3ncc4c5c3c2OCC2(CCC2)n5c(=O)n4C)cn1 [Example A-185, 7-(6-(3-(dimethylamino)propoxy)pyridin-3-yl)-2-methyl-2,9-dihydro-1H-spiro[8-oxa-2,4,10a-triazanaphtho[2,1,8-cde]azulene-10,1′-cyclobutan]-1-one]	9.60
CC[C@@H]1COc2c(-c3ccc(OCCCN4CCCCC4)nc3)ccc3ncc4c(c23)n1c(=O)n4C [Example A-187, (R)-10-ethyl-2-methyl-7-(6-(3-(piperidin-1-yl)propoxy)pyridin-3-yl)-9,10-dihydro-8-oxa-2,4,10a-triazanaphtho[2,1,8-cde]azulen-1(2H)-one]	9.66
CC[C@@H]1COc2c(-c3ccc(OCCCN(C)C)nc3)ccc3ncc4c(c23)n1c(=O)n4C [Example A-188, (R)-7-(6-(3-(dimethylamino)propoxy)pyridin-3-yl)-10-ethyl-2-methyl-9,10-dihydro-8-oxa-2,4,10a-triazanaphtho[2,1,8-cde]azulen-1(2H)-one]	9.40

Further compounds by rising pIC50, results first:

pIC50	Structure (SMILES)
9.07	COCC1COc2c(-c3ccc(OCCCN4CCCCC4)nc3)c(F)cc3ncc4c(c23)n1c(=O)n4C (stereo not shown) [Example A-49, 6-fluoro-10-(methoxymethyl)-2-methyl-7-(6-(3-(piperidin-1-yl)propoxy)pyridin-3-yl)-9,10-dihydro-8-oxa-2,4,10a-triazanaphtho[2,1,8-cde]azulen-1(2H)-one]
9.38	C[C@H]1COc2c(-c3ccc(OCCCN4CCC5(CC4)COC5)nc3)c(F)cc3ncc4c(c23)n1c(=O)n4C [Example A-171, (S)-7-(6-(3-(2-oxa-7-azaspiro[3.5]nonan-7-yl)propoxy)pyridin-3-yl)-6-fluoro-2,10-dimethyl-9,10-dihydro-8-oxa-2,4,10a-triazanaphtho[2,1,8-cde]azulen-1(2H)-one]
9.42	CC[C@H]1COc2c(-c3ccc(OCCCN4CCCCC4)nc3)ccc3ncc4c(c23)n1c(=O)n4C [Example A-186, (S)-10-ethyl-2-methyl-7-(6-(3-(piperidin-1-yl)propoxy)pyridin-3-yl)-9,10-dihydro-8-oxa-2,4,10a-triazanaphtho[2,1,8-cde]azulen-1(2H)-one]
9.43	CN(C)CCCOc1ccc(-c2ccc3ncc4c5c3c2OCC2(CC2)n5c(=O)n4C)cn1 [Example A-179, 7-(6-(3-(dimethylamino)propoxy)pyridin-3-yl)-2-methyl-2,9-dihydro-1H-spiro[8-oxa-2,4,10a-triazanaphtho[2,1,8-cde]azulene-10,1′-cyclopropan]-1-one]
9.44	Cn1c(=O)n2c3c4c(c(-c5ccc(OCCCN6CCCC6)nc5)c(F)cc4ncc31)OCC21CCC1 [Example A-162, 6-fluoro-2-methyl-7-(6-(3-(pyrrolidin-1-yl)propoxy)pyridin-3-yl)-2,9-dihydro-1H-spiro[8-oxa-2,4,10a-triazanaphtho[2,1,8-cde]azulene-10,1′-cyclobutan]-1-one]
9.49	Cn1c(=O)n2c3c4c(c(-c5ccc(OCCCN6CC[C@H](F)C6)nc5)c(F)cc4ncc31)OCC21CCC1 [Example A-161, (S)-6-fluoro-7-(6-(3-(3-fluoropyrrolidin-1-yl)propoxy)pyridin-3-yl)-2-methyl-2,9-dihydro-1H-spiro[8-oxa-2,4,10a-triazanaphtho[2,1,8-cde]azulene-10,1′-cyclobutan]-1-one]
9.55	Cn1c(=O)n2c3c4c(c(-c5ccc(OCCCN6CCCCC6)nc5)c(F)cc4ncc31)OCC2C1CC1 (stereo not shown) [Example A-27, 10-cyclopropyl-6-fluoro-2-methyl-7-(6-(3-(piperidin-1-yl)propoxy)pyridin-3-yl)-9,10-dihydro-8-oxa-2,4,10a-triazanaphtho[2,1,8-cde]azulen-1(2H)-one]
9.55	Cn1c(=O)n2c3c4c(c(-c5ccc(OCCCN6CCCCC6)nc5)c(F)cc4ncc31)OCC21CCC1 [Example A-28, 6-fluoro-2-methyl-7-(6-(3-(piperidin-1-yl)propoxy)pyridin-3-yl)-2,9-dihydro-1H-spiro[8-oxa-2,4,10a-triazanaphtho[2,1,8-cde]azulene-10,1′-cyclobutan]-1-one]
9.70	CC(C)C[C@H]1COc2c(-c3ccc(OCCCN4CCCCC4)nc3)c(F)cc3ncc4c(c23)n1c(=O)n4C [Example A-9, (S)-6-fluoro-10-isobutyl-2-methyl-7-(6-(3-(piperidin-1-yl)propoxy)pyridin-3-yl)-9,10-dihydro-8-oxa-2,4,10a-triazanaphtho[2,1,8-cde]azulen-1(2H)-one]
9.77	Cn1c(=O)n2c3c4c(c(-c5ccc(OCCCN6CCCCC6)nc5)ccc4ncc31)OCC21CCC1 [Example A-176, 2-methyl-7-(6-(3-(piperidin-1-yl)propoxy)pyridin-3-yl)-2,9-dihydro-1H-spiro[8-oxa-2,4,10a-triazanaphtho[2,1,8-cde]azulene-10,1′-cyclobutan]-1-one]

From patent US20240294545A1 (CSPC Zhongqi Pharmaceutical Technology (Shijiazhuang) Co., …, priority 2020, published 2024)
